The numbers were not newly measured in patent US8911966B2, “Efficient astaxanthin production strains derived from Haematococcus pluvialis” (Cognis IP Management GmbH, priority 2007, dated 2014), which cites them from elsewhere.

The structures appear in SMILES notation.

The conditions of this series: versus α-tocopherol.

Consider `CC1=C(/C=C/C(C)=C/C=C/C(C)=C/C=C/C=C(C)/C=C/C=C(C)/C=C/C2=C(C)C(=O)C(O)CC2(C)C)C(C)(C)CC(O)C1=O` (stereo not drawn) [astaxanthin, 3,3′-dihydroxy-β,β-carotene-4,4′-dione], for which the “antioxidant activities relative to α-tocopherol (vitamin E)” value is “over 500 times”.
